Data taken from patent publication US20120308993A1 (priority 2009, published 2012).
Several values for one entry are separate records, joined by “and”; a condition that tells them apart may be missing. Equal values may be shown once.

Assays:
Influenza A (H1N1) 2009 [1] = conditions: in vivo
Influenza A (H1N1) 2009 [2] = conditions: in vivo; remark: listed apart in the source

SMILES: CCOC(=O)C1=C[C@@H](OC(CC)CC)[C@H](NC(C)=O)[C@@H](N)C1 [Oseltamivir, oseltamivir]
- RT-PCR (Influenza A (H1N1) 2009 [1]): positive
- ct value (Influenza A (H1N1) 2009 [1]): 24 and 32 and 35
- fever settled, day of illness (Influenza A (H1N1) 2009 [2]): 5
- outcome of close contacts given oseltamivir prophylaxis (Influenza A (H1N1) 2009 [2]): remained well
